According to patent US20150030561A1, “Use of CXCR4 Antagonists” (GENZYME CORP., priority 2011, published 2015):
Where two headings read alike, the source gives them in different places.

Columns and labels:
[1] = literature (Liles 2003; DiPersio 2009); cited from earlier work
[2] = system: patients with myelokathexis attributable to mutations of CXCR4
Experimental: […] intrapatient escalating dose levels, 20 mcg/kg, 40 mcg/kg, 80 mcg/kg, and 240 mcg/kg were exam in d. The subjects were patients at the University of Washington General Clinical Research Center for up to 10 days; the study requires the subject to be available for up to 14 days.
Complete blood counts were determined at 1, 3, 6, 9 and 24 hours with an automated counter and leukocyte differential counts confirmed manually. CD34^+ cells and lymphocyte subtypes were measured by FACS before and 6 hours after the 0.08 mg/kg dose.

- hematocrit, hemoglobin and platelet counts ([2]; 10 day testing period, except one patient with severe iron deficiency anemia): stable
Structure (SMILES): c1cc(CN2CCCNCCNCCCNCC2)ccc1CN1CCCNCCNCCCNCC1 [plerixafor]
- effect on circulating CD34+ cells [1]: increases circulating CD34^+ cells
- leukocyte effect of subcutaneous administration [1]: dose-dependent leukocytosis
- leukocyte response ([2]; all 6 patients): prompt leukocytosis
- blood neutrophils 24 hours after dose ([2]; another patient, 0.24 mg/kg dose): 2e+09 L⁻¹
- fold increase, peak neutrophil response ([2]; controls (normal subjects similarly treated)): 4.4 fold
- blood neutrophils 24 hours after dose ([2]; one patient, 0.16 mg/kg dose): greater than 2.0 ×10^9/L
- peak blood neutrophils (group mean of highest observed values) ([2]; patient group, single s.c. doses 0.02 to 0.24 mg/kg, mean baseline 0.4±0.1×10^9/L): 4.5±0.78 ×10^9/L
- absolute lymphocyte count increase from baseline to peak levels ([2]; patients): approximately 14 fold
- absolute lymphocyte counts versus normal levels ([2]; patients): transiently reached normal levels
- fold increase, peak neutrophil response ([2]; patients): 8.2 fold
- CD34+ cells increase ([2]; patients, 0.08 mg/kg dose, FACS before and 6 hours after): ~6 fold
- effect on neutropenia and lymphocytopenia ([2]; patients, s.c. single doses): transiently correct neutropenia and lymphocytopenia
